# Measured values reported in publication PMC8222254, “Self-assembly of an anion receptor with metal-dependent kinase inhibition and potent in vitro anti-cancer properties” (Nature Communications, 2021).
# Several values for one entry are separate records, joined by “and”; a condition that tells them apart may be missing. Equal values may be shown once.
# Key:
# Test in all cases: Kinase inhibition screen, cell-free 33P ATP assay at 10 μM
# Assay type in all cases: biochemical
# [1] = target: 140 purified human kinases (Homo sapiens, UniProt P17612); details: PKA
# In short: (§1)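 Radiometric ^33P ATP cell-free format with purified enzymes; both complexes run at 10 μM in duplicate, results plotted on a kinome map via HGNC symbols.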
# [2] = target: 140 purified human kinases (Homo sapiens, UniProt P27448); details: MARK3
# 140 purified human kinases (Homo sapiens, UniProt P27448), sequence (P27448 whole entry): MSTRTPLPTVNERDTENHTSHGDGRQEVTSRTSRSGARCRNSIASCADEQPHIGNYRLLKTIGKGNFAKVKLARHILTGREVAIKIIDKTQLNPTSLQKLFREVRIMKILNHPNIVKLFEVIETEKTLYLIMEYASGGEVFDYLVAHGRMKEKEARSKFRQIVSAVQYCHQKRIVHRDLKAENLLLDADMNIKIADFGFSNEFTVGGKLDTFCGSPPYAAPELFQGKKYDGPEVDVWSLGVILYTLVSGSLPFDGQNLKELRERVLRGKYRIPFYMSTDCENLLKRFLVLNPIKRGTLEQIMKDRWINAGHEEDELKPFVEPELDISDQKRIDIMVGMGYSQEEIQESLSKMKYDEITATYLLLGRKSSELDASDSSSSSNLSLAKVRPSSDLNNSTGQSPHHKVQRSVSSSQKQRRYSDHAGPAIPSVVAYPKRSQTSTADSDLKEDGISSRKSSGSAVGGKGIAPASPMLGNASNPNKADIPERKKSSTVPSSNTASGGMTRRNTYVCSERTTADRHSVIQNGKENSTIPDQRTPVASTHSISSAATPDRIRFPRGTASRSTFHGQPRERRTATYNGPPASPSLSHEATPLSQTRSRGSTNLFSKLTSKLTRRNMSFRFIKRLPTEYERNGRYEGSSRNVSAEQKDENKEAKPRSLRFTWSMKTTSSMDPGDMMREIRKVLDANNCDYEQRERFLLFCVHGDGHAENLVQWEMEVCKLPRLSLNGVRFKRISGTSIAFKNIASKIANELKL
# In short: as §1
# [3] = target: 140 purified human kinases (Homo sapiens, UniProt P48730); details: CK1δ
# 140 purified human kinases (Homo sapiens, UniProt P48730), sequence (P48730 whole entry): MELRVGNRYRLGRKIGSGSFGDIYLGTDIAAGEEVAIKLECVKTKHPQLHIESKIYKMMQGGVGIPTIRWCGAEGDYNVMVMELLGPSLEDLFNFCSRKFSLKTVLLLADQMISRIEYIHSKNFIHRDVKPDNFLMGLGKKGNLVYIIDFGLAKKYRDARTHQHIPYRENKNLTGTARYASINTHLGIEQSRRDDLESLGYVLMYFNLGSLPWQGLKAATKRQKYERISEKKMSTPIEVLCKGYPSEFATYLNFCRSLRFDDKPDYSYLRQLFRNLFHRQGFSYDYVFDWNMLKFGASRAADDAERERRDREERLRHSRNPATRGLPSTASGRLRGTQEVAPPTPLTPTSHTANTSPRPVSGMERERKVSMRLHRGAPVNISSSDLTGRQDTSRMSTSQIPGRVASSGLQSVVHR
# In short: as §1
# [4] = target: 140 purified human kinases (Homo sapiens, UniProt P50750); details: CDK9-Cyclin T1
# 140 purified human kinases (Homo sapiens, UniProt P50750), sequence (P50750 whole entry): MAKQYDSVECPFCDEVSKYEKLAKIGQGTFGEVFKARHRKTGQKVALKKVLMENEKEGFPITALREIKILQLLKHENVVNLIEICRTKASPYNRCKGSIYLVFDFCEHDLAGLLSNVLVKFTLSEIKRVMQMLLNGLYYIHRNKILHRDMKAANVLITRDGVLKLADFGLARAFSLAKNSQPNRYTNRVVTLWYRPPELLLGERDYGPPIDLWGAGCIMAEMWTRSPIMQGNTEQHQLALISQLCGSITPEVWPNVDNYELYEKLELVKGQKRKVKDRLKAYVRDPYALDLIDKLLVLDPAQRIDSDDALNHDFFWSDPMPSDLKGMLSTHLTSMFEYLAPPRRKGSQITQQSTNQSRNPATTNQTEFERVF
# In short: as §1
# [5] = target: T1, 140 purified human kinases (Homo sapiens, UniProt P52564); details: MKK6
# T1 sequence (P52564 1-334): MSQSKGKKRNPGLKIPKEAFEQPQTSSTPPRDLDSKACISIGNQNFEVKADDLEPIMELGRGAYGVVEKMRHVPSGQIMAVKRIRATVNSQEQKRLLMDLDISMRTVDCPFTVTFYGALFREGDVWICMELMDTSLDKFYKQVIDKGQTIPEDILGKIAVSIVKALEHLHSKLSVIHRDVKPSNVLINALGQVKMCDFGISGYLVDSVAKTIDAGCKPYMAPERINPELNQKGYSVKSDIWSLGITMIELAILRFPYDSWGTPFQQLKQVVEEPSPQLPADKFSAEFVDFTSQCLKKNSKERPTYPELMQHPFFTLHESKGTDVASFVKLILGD
# In short: as §1
# [6] = target: 140 purified human kinases (Homo sapiens, UniProt P53350); details: PLK1
# 140 purified human kinases (Homo sapiens, UniProt P53350), sequence (P53350 whole entry): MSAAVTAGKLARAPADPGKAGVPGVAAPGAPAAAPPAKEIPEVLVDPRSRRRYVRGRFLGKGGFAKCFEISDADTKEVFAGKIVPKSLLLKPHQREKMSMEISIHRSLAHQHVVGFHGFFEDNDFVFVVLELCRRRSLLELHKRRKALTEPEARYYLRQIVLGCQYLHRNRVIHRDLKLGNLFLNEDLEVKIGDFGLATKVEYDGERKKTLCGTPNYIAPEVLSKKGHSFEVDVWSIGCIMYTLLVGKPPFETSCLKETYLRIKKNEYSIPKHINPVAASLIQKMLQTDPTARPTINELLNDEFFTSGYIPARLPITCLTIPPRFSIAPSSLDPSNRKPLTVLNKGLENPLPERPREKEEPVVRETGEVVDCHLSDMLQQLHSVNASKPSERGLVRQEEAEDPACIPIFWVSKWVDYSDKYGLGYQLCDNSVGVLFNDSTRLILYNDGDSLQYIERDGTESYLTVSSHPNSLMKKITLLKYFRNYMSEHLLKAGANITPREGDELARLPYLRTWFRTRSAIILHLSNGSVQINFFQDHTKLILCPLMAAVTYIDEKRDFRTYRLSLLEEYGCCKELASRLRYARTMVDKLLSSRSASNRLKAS
# In short: as §1
# [7] = target: 140 purified human kinases (Homo sapiens, UniProt P78368); details: CK1γ2
# 140 purified human kinases (Homo sapiens, UniProt P78368), sequence (P78368 whole entry): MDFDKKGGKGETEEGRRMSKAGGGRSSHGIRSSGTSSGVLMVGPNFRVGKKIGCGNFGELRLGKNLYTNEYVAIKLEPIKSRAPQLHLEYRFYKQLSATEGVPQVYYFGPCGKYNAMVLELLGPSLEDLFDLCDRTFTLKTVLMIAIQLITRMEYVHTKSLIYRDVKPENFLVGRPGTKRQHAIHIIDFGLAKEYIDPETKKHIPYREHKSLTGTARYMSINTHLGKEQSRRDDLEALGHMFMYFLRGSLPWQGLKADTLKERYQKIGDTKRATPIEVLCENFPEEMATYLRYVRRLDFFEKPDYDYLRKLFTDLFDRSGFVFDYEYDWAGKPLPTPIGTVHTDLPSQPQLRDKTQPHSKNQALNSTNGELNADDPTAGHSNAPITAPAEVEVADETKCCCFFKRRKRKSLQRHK
# In short: as §1
# [8] = target: 140 purified human kinases (Homo sapiens, UniProt Q06187); details: BTK
# In short: as §1
# [9] = target: 140 purified human kinases (Homo sapiens, UniProt Q13233); details: MEKK1
# In short: as §1
# [10] = target: 140 purified human kinases (Homo sapiens, UniProt Q13627); details: DYRK1A
# In short: as §1
# [11] = target: 140 purified human kinases (Homo sapiens, UniProt Q5TCY1); details: TTBK1
# 140 purified human kinases (Homo sapiens, UniProt Q5TCY1), sequence (Q5TCY1 whole entry): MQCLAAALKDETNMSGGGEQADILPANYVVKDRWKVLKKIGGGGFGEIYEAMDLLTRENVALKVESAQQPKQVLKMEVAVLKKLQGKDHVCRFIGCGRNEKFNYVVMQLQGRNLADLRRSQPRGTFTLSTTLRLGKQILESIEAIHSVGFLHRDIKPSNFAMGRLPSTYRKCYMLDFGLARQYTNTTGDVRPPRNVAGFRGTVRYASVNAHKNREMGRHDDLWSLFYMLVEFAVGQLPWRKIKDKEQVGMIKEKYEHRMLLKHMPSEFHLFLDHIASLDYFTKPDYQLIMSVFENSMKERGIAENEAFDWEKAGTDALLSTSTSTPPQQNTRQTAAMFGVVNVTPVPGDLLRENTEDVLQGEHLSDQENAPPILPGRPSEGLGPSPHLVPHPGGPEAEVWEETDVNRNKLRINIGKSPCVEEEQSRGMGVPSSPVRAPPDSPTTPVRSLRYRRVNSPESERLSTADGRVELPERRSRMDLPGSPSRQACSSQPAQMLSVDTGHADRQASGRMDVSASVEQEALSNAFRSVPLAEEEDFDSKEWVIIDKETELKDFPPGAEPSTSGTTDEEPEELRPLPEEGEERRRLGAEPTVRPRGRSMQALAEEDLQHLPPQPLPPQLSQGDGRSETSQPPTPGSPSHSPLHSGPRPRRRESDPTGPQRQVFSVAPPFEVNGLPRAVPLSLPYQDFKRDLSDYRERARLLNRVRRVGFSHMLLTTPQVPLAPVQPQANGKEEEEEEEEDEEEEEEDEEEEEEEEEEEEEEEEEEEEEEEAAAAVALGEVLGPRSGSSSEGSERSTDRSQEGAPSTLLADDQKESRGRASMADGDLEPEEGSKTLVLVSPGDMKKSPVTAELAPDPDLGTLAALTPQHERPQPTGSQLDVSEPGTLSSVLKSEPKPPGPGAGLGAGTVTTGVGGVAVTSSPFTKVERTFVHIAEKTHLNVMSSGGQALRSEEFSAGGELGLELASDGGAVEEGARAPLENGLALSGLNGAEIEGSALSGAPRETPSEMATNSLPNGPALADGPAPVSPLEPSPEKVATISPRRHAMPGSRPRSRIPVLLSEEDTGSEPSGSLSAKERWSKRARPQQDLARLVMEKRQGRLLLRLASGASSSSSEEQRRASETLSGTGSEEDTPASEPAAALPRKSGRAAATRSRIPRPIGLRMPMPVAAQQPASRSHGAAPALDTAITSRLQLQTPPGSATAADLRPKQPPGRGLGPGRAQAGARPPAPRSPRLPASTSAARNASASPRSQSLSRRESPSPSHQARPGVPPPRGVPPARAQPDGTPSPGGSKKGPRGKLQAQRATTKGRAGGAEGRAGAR
# In short: as §1
# [12] = target: 140 purified human kinases (Homo sapiens, UniProt Q86V86); details: PIM3
# In short: as §1
# [13] = target: 140 purified human kinases (Homo sapiens, UniProt Q96GD4); details: Aurora B
# 140 purified human kinases (Homo sapiens, UniProt Q96GD4), sequence (Q96GD4 whole entry): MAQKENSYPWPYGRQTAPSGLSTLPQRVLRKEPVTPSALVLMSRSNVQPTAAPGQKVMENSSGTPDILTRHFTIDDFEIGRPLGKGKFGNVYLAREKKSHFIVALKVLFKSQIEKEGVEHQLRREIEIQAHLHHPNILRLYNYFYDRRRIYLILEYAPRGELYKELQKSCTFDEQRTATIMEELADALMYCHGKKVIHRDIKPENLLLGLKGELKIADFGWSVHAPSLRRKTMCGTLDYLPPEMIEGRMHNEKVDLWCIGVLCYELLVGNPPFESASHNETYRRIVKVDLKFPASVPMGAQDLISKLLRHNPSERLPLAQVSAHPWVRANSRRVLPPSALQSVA
# In short: as §1
# [14] = target: 140 purified human kinases (Homo sapiens, UniProt Q9BUB5); details: MNK1
# In short: as §1
# [15] = target: 140 purified human kinases (Homo sapiens, UniProt Q9P1W9); details: PIM2
# 140 purified human kinases (Homo sapiens, UniProt Q9P1W9), sequence (Q9P1W9 whole entry): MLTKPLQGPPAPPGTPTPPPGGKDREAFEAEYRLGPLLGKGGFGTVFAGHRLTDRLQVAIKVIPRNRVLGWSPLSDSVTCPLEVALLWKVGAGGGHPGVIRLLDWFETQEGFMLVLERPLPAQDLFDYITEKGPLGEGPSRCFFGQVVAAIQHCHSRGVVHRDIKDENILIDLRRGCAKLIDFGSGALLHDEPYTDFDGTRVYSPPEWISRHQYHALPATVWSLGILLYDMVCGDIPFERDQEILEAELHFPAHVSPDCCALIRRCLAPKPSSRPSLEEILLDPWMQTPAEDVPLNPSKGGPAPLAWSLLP
# In short: as §1
compound,measurement,setting,value
CC(=O)[O-].CC(=O)[O-].CC(=O)[O-].CC(=O)[O-].CC(=O)[O-].CC(=O)[O-].[Zn+2].[Zn+2].[Zn+2].c1ccc(-c2csc(NCCN(CCNc3nc(-c4ccccn4)cs3)CCNc3nc(-c4ccccn4)cs3)n2)nc1.c1ccc(-c2csc(NCCN(CCNc3nc(-c4ccccn4)cs3)CCNc3nc(-c4ccccn4)cs3)n2)nc1 [[L2Zn3]6+],"% Activation, Mean value",[1],7%
same,"% Inhibition, Mean",[1],-7%
same,mean % activity,[1],107%
same,% activity,[1]; duplicate runs,101% and 114%
same,"% Inhibition, Mean",[2],4.7%
same,"% Inhibition, Run 1 / Run 2",[2],1.7% and 8%
same,mean % activity,[2],95%
same,% activity,[2]; duplicate runs,98% and 92%
same,"% Activation, Mean value",[3],19%
same,"% Inhibition, Mean",[3],-19%
same,mean % activity,[3],119%
same,% Activity Run 1,[3]; 10 µM,131.0%
same,% Activity Run 2,[3]; 10 µM,107.0%
same,% activity,[3]; duplicate runs,131% and 107%
same,"% Activation, Mean value",[4],6%
same,"% Inhibition, Mean",[4],-6%
same,mean % activity,[4],106%
same,% activity,[4]; duplicate runs,96% and 117%
same,"% Inhibition, Mean",[5],48%
same,"% Inhibition, Run 1 / Run 2",[5],59% and 37%
same,mean % activity,[5],52%
same,% activity,[5]; duplicate runs,41% and 63%
same,"% Activation, Mean value",[6],17%
same,"% Inhibition, Mean",[6],-17%
same,"% Inhibition, Run 1 / Run 2",[6],-15% and -19%
same,mean % activity,[6],117%
same,% Activity Run 1,[6]; 10 µM,115.0%
same,% Activity Run 2,[6]; 10 µM,119.0%
same,% activity,[6]; duplicate runs,115% and 119%
same,"% Inhibition, Mean",[7],12%
same,mean % activity,[7],88%
same,% activity,[7]; duplicate runs,82% and 94%
same,"% Inhibition, Mean",[8],47%
same,"% Inhibition, Run 1 / Run 2",[8],56% and 39%
same,mean % activity,[8],53%
same,% activity,[8]; duplicate runs,45% and 61%
same,"% Inhibition, Mean",[9],17%
same,mean % activity,[9],83%
same,% activity,[9]; duplicate runs,75% and 92%
same,"% Inhibition, Mean",[10],28%
same,"% Inhibition, Run 1 / Run 2",[10],34% and 22%
same,mean % activity,[10],72%
same,% activity,[10]; duplicate runs,67% and 78%
same,"% Activation, Mean value",[11],8%
same,"% Inhibition, Mean",[11],-8%
same,mean % activity,[11],108%
same,% activity,[11]; duplicate runs,97% and 119%
same,"% Inhibition, Mean",[12],36%
same,"% Inhibition, Run 1 / Run 2",[12],38% and 35%
same,mean % activity,[12],64%
same,% activity,[12]; duplicate runs,62% and 65%
same,"% Inhibition, Mean",[13],50%
same,"% Inhibition, Run 1 / Run 2",[13],54% and 46%
same,mean % activity,[13],50%
same,% activity,[13]; duplicate runs,46% and 54%
same,"% Activation, Mean value",[14],14%
same,"% Inhibition, Mean",[14],-14%
same,"% Inhibition, Run 1 / Run 2",[14],-12% and -15%
same,mean % activity,[14],114%
same,% Activity Run 1,[14]; 10 µM,112.0%
same,% Activity Run 2,[14]; 10 µM,115.0%
same,% activity,[14]; duplicate runs,112% and 115%
same,"% Inhibition, Mean",[15],1.85%
same,mean % activity,[15],98%
same,% activity,[15]; duplicate runs,87% and 109%
